Measured values published in the METLIN SMRT retention time set (Domingo-Almenara et al. 2019).

Assay: gradient 5% acetonitrile 3 min, to 50% in 2 min, to 85% in 15 min, held 3 min, 100 µL/min
Details: column: Zorbax Extend-C18 2.1 x 50 mm; eluents: water / acetonitrile, 0.1% formic acid
Procedure, shortened: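 The mobile phases were water and acetonitrile, each with 0.1% formic acid, pumped at 100 μL/min through a Zorbax Extend-C18 column (2.1 × 50 mm, 1.8 μm). Pure standards were injected as mixtures of ~100 molecules and detected by a quadrupole time-of-flight mass spectrometer in positive and negative ionization mode. Retention time came from computationally picked adduct peaks, each inspected by hand.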

RP-LC retention time [s]	SMILES
748	COc1cccc(C(C)NC(=O)CN2C(=O)NC3(CCCCC3)C2=O)c1 (configuration not stated)
961	O=C(Nc1cnc(-c2ccc(F)cc2)nc1)c1ccccc1
616	O=C(NC1CCS(=O)(=O)C1)C1CCN(S(=O)(=O)c2cccs2)CC1 (configuration not stated)
573	CN1CCc2cc(C(CNS(=O)(=O)c3ccccc3F)N3CCCC3)ccc21 (configuration not stated)
755	Cn1cc(C(CNC(=O)Nc2cccc(Br)c2)c2cccnc2)c2ccccc21 (configuration not stated)
675	COCCCNC(=O)C1CCN(c2ccc(Sc3cccc(F)c3)nn2)CC1
693	Cc1ccc(C)c(NC(=O)N2CC(c3nc(C)no3)C3(CCOCC3)C2)c1 (configuration not stated)
1120	COc1ccc2c(c1)OC1(C)CC2C(S(=O)(=O)c2ccc(C(C)C)cc2)C(=O)N1C (configuration not stated)
945	COc1ccc(Cn2nc3c(S(=O)(=O)N4CCc5ccccc5C4)cccn3c2=O)cc1F
586	Cn1cnc(S(=O)(=O)N2CCCC(c3[nH]ccc3C(N)=O)C2)c1 (configuration not stated)
808	COC(=O)c1c(NCc2ccccc2F)c2cccc(Cl)c2[nH]c1=O
581	Cc1ccc(Cn2cc(-c3ccncc3)cc2C(=O)NCc2cccnc2)cc1
894	Cc1cccc(-n2nc3c(c2-n2cccc2)CN(C(=O)c2snnc2C)C3)c1
722	COCCC(=O)NC1CCN(C2=NS(=O)(=O)C(c3cccc(Cl)c3)=C2C)CC1
822	CC(=O)c1cccc(NC(=O)Cn2nc3c4cc(-c5ccccc5)nn4ccn3c2=O)c1
1060	CCc1cc2c(cc(C(=O)NCc3ccccc3)n2C)s1
596	CCN1CCn2cc(C(=O)NCc3ccc(SC)cc3)nc2C1
846	O=C(NCC1CCCCC1)c1cccc(CN2C(=O)C3CCCN3C(=O)c3ccccc32)c1 (configuration not stated)
800	CCC(=O)N1CCc2ccc(C(=O)NC3CCCCC3)cc21
1240	Cc1ccc(S(=O)(=O)N2CCc3nc(-c4ccccc4)ncc3C2)cc1Cl
841	CCOC(=O)c1c(S(=O)(=O)N2CCC(C(=O)NCc3ccc(C)cc3)CC2)c(C)n(C)c1C
718	CCc1csc(-c2ccc(S(=O)(=O)NCCN3CCC(C)CC3)s2)n1

RP-LC retention time [s]	SMILES
648	CC1C(=O)NCCN1C(=O)CSc1ccc(Cl)cc1 (configuration not stated)
947	CC1(C(=O)NCc2ccccc2)CCCN(C(=O)Nc2ccccc2Br)C1 (configuration not stated)
882	CCOCCCNC(=O)C1c2ccccc2C(=O)N(C2CCCC2)C1c1cccs1 (configuration not stated)
849	Cc1[nH]c(C(=O)N2CCC(CC(=O)N3CCC(C)CC3)CC2)c(C)c1C(=O)OC(C)C
1020	CCOC(=O)c1cc(S(=O)(=O)N2CCCC2C(=O)NC2CCCCCCC2)cn1C (configuration not stated)
720	CCCn1cnc2cc(CNC(=O)c3ccc(C(C)(C)C)cc3)ccc21
732	CNC(=O)c1noc([C@@H]2CC(F)(F)CN2Cc2ccco2)n1
591	CC(C)C(NC(=O)c1ccc([N+](=O)[O-])cc1)c1nc2ccccc2[nH]1 (configuration not stated)
719	COc1ccc(NC(=O)C2CCc3nc(N4CCCC4)ncc3C2)cc1OC (configuration not stated)
615	CCN1C(=O)c2ccccc2S(=O)(=O)c2ccc(C(=O)N3CCN(c4ccccn4)CC3)cc21
639	CN(C)S(=O)(=O)c1cc2c(cc1N1CCN(c3ccccn3)CC1)Oc1ccccc1NC2=O
851	COc1ccc(-n2ccc(=O)c(-c3nc(-c4ccc(F)cc4)no3)n2)cc1
767	CSc1ccc(CNC(=O)CSc2cc(N3CCCCC3)ncn2)cc1
590	Cc1ccc(Nc2nc(C(=O)NCCc3cnc[nH]3)nc3ccccc23)cc1
674	CCNc1nc(NC)nc(-n2cnc(SC)n2)n1
1320	CCCN(C(=O)Cc1ccccc1)c1nc(-c2ccccc2)cs1
708	CCOCCOC1CCN(C(=O)Nc2ccc3c(c2)OCCO3)CC1
650	CN(CCNC(=O)C1CCCN(c2nnc(-n3cccc3)s2)C1)C1CCCCC1 (configuration not stated)
624	c1ccc2[nH]c(-c3ccncc3)nc2c1
877	Cc1cccc(NC(=O)N2CCC(n3cnc4c(Cl)cccc4c3=O)CC2)c1
907	CCCN1CCCCc2cc(C(=O)NC(C)COC)sc21 (configuration not stated)
609	CC(C)NC(=O)Cn1cnc2ccccc2c1=O

RP-LC retention time [s]	SMILES
903	CCc1noc(NC(C)=O)c1-c1ccc(C)c(S(=O)(=O)Nc2ccc(Br)cc2F)c1
740	O=c1ccc(-c2nc(-c3ccc4c(c3)OCO4)no2)cn1Cc1cc(=O)n2ccccc2n1
619	Cc1ccc(=O)n(CCNC(=O)c2ccc3nsnc3c2)n1
1230	O=c1c2sccc2n(Cc2nc(-c3ccc(F)c(Cl)c3)no2)c(=O)n1CCc1ccccc1
595	COCC(C)(O)CNC(=O)Nc1c(F)cccc1F (configuration not stated)
665	CCOC(=O)c1nc(N2CCN(C(=O)c3ccco3)CC2)c2ccccc2n1
998	CCC(=O)N(C1CCOCC1)C1CCN(S(=O)(=O)c2ccc(F)cc2F)CC1
848	CNC(=O)c1noc([C@@H]2CC(F)(F)CN2C(=O)CCC2CCCC2)n1
712	CCOc1ccc(NC(=O)c2cnc(N3CCSCC3)nc2N)cc1
581	O=C(CN1C(=O)c2ccccc2C1=O)Nc1cccc(-c2cn3c(n2)SCC3)c1
570	Nc1nnc(C2CC(=O)N(c3ccccc3)C2)o1 (configuration not stated)
928	CCc1ccc(C2=C(C)C(N3CCC(NC(=O)NC(C)(C)C)CC3)=NS2(=O)=O)cc1
1170	CCCN1C(=O)COc2ccc(-c3noc(COc4cccc(C)c4)n3)cc21
1040	Cc1nc2cc(-c3noc(-c4nn(C)c5ccccc45)n3)ccc2o1
598	COC(=O)c1ccc(Nc2c(C(=O)N3CCCC3)cnc3nc(C)ccc23)cc1
955	Cc1ccc(F)cc1S(=O)(=O)N1CCC2(C1)C(=O)N(C)c1ccccc12 (configuration not stated)
1040	Cn1c(=O)n(C)c2cc(N3CCCCC3)c(NC(=O)COc3ccc(Cl)cc3)cc21
671	Cc1sc2cc(C(=O)NC3CCCCC3)[nH]c2c1CN1CCOCC1
611	Cn1c(=O)c2c(ncn2CC(=O)N2CCC(c3nc(C4CCOCC4)no3)CC2)n(C)c1=O
907	CCn1c(=O)c(N2CCCC(C(=O)NCCc3c[nH]c4ccc(OC)cc34)C2)nc2ccccc21 (configuration not stated)
847	Cc1ccsc1C(=O)N1CCC2(CC1)NC(=O)N(Cc1ccccc1Cl)C2=O
707	Cn1c(=O)c(C(=O)NC2CCCC2)nc2cccnc21

SMILES	RP-LC retention time [s]
COc1ccc(NC(=O)[C@@H]2c3ccccc3C(=O)N3CCCC[C@@H]23)cc1OC	727
